Data: patent US20180250260A1, “METHODS FOR TREATING CANCER” (BOSTON BIOMEDICAL, INC., priority 2015, published 2018)
Where “and” joins values, the source holds several entries; their conditions need not be identical. Equal values may be shown once. Entries after “also recorded” stand apart in the source; their conditions may differ.

Legend:
[1] = tested on: advanced gastrointestinal cancer, including CRC and gastric cancer; assay: Phase Ib open-label multi-center study, anti-tumor activity (RECIST 1.1); format: in vivo, human; parameters: key to Best Response (RECIST 1.1): partial response (PR); stable disease (SD)
Protocol: (§1) The effects of 2-acetylnaphtho[2,3-b]furan-4,9-dione in combination with FOLFIRI in patients with advanced gastrointestinal cancer, including CRC and gastric cancer, were studied in phase lb open-label, multi-center studies. In one phase lb open label, multi-center clinical study, the safety, tolerability, and preliminary anti-tumor activity of 2-acetylnaphtho[2,3-b]furan-4,9-dione in combination with FOLFIRI, with and without bevacizumab, were assessed in adult patients with advanced gastrointestinal cancer, including CRC and gastric cancer. In addition, the pharmacokinetic profile and the pharmacodynamics (biomarkers) of 2-acetylnaphtho[2,3-b]furan-4,9-dione in combination with FOLFIRI, with and without bevacizumab, were studied, and the recommended phase II dose (RP2D) of 2-acetylnaphtho[2,3-b]furan-4,9-dione and FOLFIRI, with or without bevacizumab, were evaluated.
In total, as of April 2015, 18 patients aged 40-72 were enrolled in the open label, multi-center, phase lb study (see Table 2). These patients were pretreated with an average of >3 prior lines of therapy. Of this group, 10 patients (56%) previously progressed on FOLFIRI.
Of the 17 patients evaluable for response, 8 patients received 2-acetylnaphtho[2,3-b]furan-4,9-dione in combination with FOLFIRI and 9 patients received 2-acetylnaphtho[2,3-b]furan-4,9-dione in combination with FOLFIRI and bevacizumab (see FIG. 7).
(§2) Patients received continuous oral administration of 2-acetylnaphtho[2,3-b]furan-4,9-dione twice daily in 28 day cycles. A FOLFIRI regimen was administered (with or without bevacizumab depending on patient) every 14 days. Specifically, 2-acetylnaphtho[2,3-b]furan-4,9-dione was administered at a dose of 240 mg BID in combination with FOLFIRI (5-FU 400 mg/m^2 bolus with 2400 mg/m^2, irinotecan 180 mg/m^2, and leucovorin 400 mg/m^2 infusion) with or without bevacizumab 5 mg/kg, administered bi-weekly until progression of disease, unacceptable toxicity, or other discontinuation criterion was met.
Pharmacokinetics and pharmacodynamics were evaluated and objective tumor response was assessed every 8 weeks using Response Evaluation Criteria In Solid Tumors (RECIST 1.1).

cancer stem cells = assay: Effect on cancer stem cells with and without 5-fluorouracil; format: cell-based; conditions: FIG. 5
Source text: The effects of 2-acetylnaphtho[2,3-b]furan-4,9-dione was examined in cancer stem cells with and without 5-fluorouracil by using methods similar to those disclosed in U.S. pre-grant Publication No. 2012/0252763, Example 3.

[2] = Phase Ib open-label multi-center study, safety and tolerability (adverse events); format: in vivo, human; conditions: 240 mg BID with FOLFIRI, with and without bevacizumab
Protocol: as §1, §2

[3] = 240 mg BID with FOLFIRI, with and without bevacizumab, 17 evaluable patients
[4] = individual patients, 240 mg BID with chemotherapy backbone FOLFIRI
[5] = individual patients, 240 mg BID with chemotherapy backbone FOLFIRI/Bev
[6] = N = 18, possibly/probably/definitely related

CC(=O)c1cc2c(o1)C(=O)c1ccccc1C2=O [2-acetylnaphtho[2,3-b]furan-4,9-dione]
regression in the PR patients (RECIST 1.1) ([1]; 240 mg BID with FOLFIRI, with and without bevacizumab): 44% and 33%
patients with prolonged SD of ≥6 month ([1]; 240 mg BID with FOLFIRI, with and without bevacizumab, 7 of 17 patients): 41%
evaluable patients with prolonged SD (>6 months) ([1]; 240 mg BID with FOLFIRI, with and without bevacizumab, 10 of 17): 59%
evaluable patients with reduced target lesions ([1]; 240 mg BID with FOLFIRI, with and without bevacizumab, 15 of 17, FIG. 7): 88%
number of patients with PR (RECIST 1.1) [1, 3]: 2
number of patients with SD [1, 3]: 14
patients in whom anti-cancer activity was observed ([1]; 240 mg BID with FOLFIRI, with and without bevacizumab, advanced CRC who had failed prior standard chemotherapy): 94%
median progression-free survival (PFS) ([1]; 240 mg BID with FOLFIRI, with and without bevacizumab, evaluable patients): 5.72 months
overall survival of patients with higher expression levels of Stat3 (pStat3) before treatment ([1]; clinical trials, at least in CRC patients): prolonged overall survival
response of a patient with gastric adenocarcinoma with a metastatic lesion in the liver ([1]; combination with FOLFIRI for 8 weeks, failed prior epirubicin, oxaliplatin and Xeloda, FIG. 8): complete response
median survival of pStat3-positive patients compared to pStat3-negative patients ([1]; in combination with FOLFIRI and bevacizumab): longer median survival
Best Response (RECIST 1.1) [1, 4]: SD (4×) and PR (3×)
Comment on course of disease [1, 4]: prolonged stable disease; also recorded: unequivocal progression; also recorded: prolonged stable disease,; also recorded: prolonged SD/PR,
Weeks on Study [1, 4]: 25 weeks and 17 weeks (2×) and 16 weeks and 6 weeks and 3 weeks and 34+ weeks and 32+ weeks and 36 weeks
tumor growth [1, 4]: 8% tumor growth, and 3% tumor growth
tumor regression [1, 4]: 19% tumor regression, and 44% tumor regression and 23% tumor regression and 17 tumor regression, % and 40% tumor regression, and 83% tumor regression,
Best Response (RECIST 1.1) [1, 5]: SD
Comment on course of disease [1, 5]: prolonged stable disease,; also recorded: prolonged stable disease
Weeks on Study [1, 5]: 85+ weeks and 29 weeks and 24 weeks and 18 weeks and 15 weeks and 14 weeks and 25 weeks (2×) and 42 weeks
tumor regression [1, 5]: 25% tumor regression, and 14% tumor regression, and 18% tumor regression, and 4% tumor regression and 10% tumor regression and 21% tumor regression and 1% tumor regression; and 4% tumor regression; and 18% tumor regression;
lesion formations in patients previously exposed to FOLFIRI but experiencing progression ([1]; with bi-weekly FOLFIRI with or without bevacizumab): reduced lesion formations in almost all of the patients
5-fluorouracil-induced increase in the number of cancer stem cells (cancer stem cells; added to 5-fluorouracil): attenuated
effect of the combination on cancer stem cell growth (cancer stem cells; combination with 5-fluorouracil): greater than additive effect
Dehydration Grade 3 related to protocol therapy, number of patients [2]: 1
dose limiting toxicity or new adverse events [2]: No dose limiting toxicity or new adverse events were seen
safety of the combination [2]: safely combined
Abdominal Pain Grade 1, number of subjects [2, 6]: 7
Abdominal Pain Grade 1, percent of total subjects [2, 6]: 38.9%
Abdominal Pain Grade 2, number of subjects [2, 6]: 4
Abdominal Pain Grade 2, percent of total subjects [2, 6]: 22.2%
Abdominal Pain Grade 3, number of subjects [2, 6]: 0
Abdominal Pain Grade 3, percent of total subjects [2, 6]: 0.0%
Alopeda Grade 1, number of subjects [2, 6]: 4
Alopeda Grade 1, percent of total subjects [2, 6]: 22.2%
Alopeda Grade 2, number of subjects [2, 6]: 0
Alopeda Grade 2, percent of total subjects [2, 6]: 0.0%
Alopeda Grade 3, number of subjects [2, 6]: 0
Alopeda Grade 3, percent of total subjects [2, 6]: 0.0%
Anemia Grade 1, number of subjects [2, 6]: 2
Anemia Grade 1, percent of total subjects [2, 6]: 11.1%
Anemia Grade 2, number of subjects [2, 6]: 2
Anemia Grade 2, percent of total subjects [2, 6]: 11.1%
Anemia Grade 3, number of subjects [2, 6]: 0
Anemia Grade 3, percent of total subjects [2, 6]: 0.0%
Anorexia Grade 1, number of subjects [2, 6]: 12
Anorexia Grade 1, percent of total subjects [2, 6]: 66.7%
Anorexia Grade 2, number of subjects [2, 6]: 3
Anorexia Grade 2, percent of total subjects [2, 6]: 16.7%
Anorexia Grade 3, number of subjects [2, 6]: 0
Anorexia Grade 3, percent of total subjects [2, 6]: 0.0%
Diarrhea Grade 1, number of subjects [2, 6]: 18
Diarrhea Grade 1, percent of total subjects [2, 6]: 100.0%
Diarrhea Grade 2, number of subjects [2, 6]: 9
Diarrhea Grade 2, percent of total subjects [2, 6]: 50.0%
Diarrhea Grade 3, number of subjects [2, 6]: 3
Diarrhea Grade 3, percent of total subjects [2, 6]: 16.7%
Dry Mouth Grade 1, number of subjects [2, 6]: 2
Dry Mouth Grade 1, percent of total subjects [2, 6]: 11.1%
Dry Mouth Grade 2, number of subjects [2, 6]: 1
Dry Mouth Grade 2, percent of total subjects [2, 6]: 5.6%
Dry Mouth Grade 3, number of subjects [2, 6]: 0
Dry Mouth Grade 3, percent of total subjects [2, 6]: 0.0%
Dysgeusia Grade 1, number of subjects [2, 6]: 5
Dysgeusia Grade 1, percent of total subjects [2, 6]: 27.8%
Dysgeusia Grade 2, number of subjects [2, 6]: 0
Dysgeusia Grade 2, percent of total subjects [2, 6]: 0.0%
Dysgeusia Grade 3, number of subjects [2, 6]: 0
Dysgeusia Grade 3, percent of total subjects [2, 6]: 0.0%
Fatigue Grade 1, number of subjects [2, 6]: 12
Fatigue Grade 1, percent of total subjects [2, 6]: 66.7%
Fatigue Grade 2, number of subjects [2, 6]: 10
Fatigue Grade 2, percent of total subjects [2, 6]: 55.6%
Fatigue Grade 3, number of subjects [2, 6]: 3
Fatigue Grade 3, percent of total subjects [2, 6]: 16.7%
Flatulence Grade 1, number of subjects [2, 6]: 2
Flatulence Grade 1, percent of total subjects [2, 6]: 11.1%
Flatulence Grade 2, number of subjects [2, 6]: 1
Flatulence Grade 2, percent of total subjects [2, 6]: 5.6%
Flatulence Grade 3, number of subjects [2, 6]: 0
Flatulence Grade 3, percent of total subjects [2, 6]: 0.0%
Nausea Grade 1, number of subjects [2, 6]: 14
Nausea Grade 1, percent of total subjects [2, 6]: 77.8%
Nausea Grade 2, number of subjects [2, 6]: 6
Nausea Grade 2, percent of total subjects [2, 6]: 33.3%
Nausea Grade 3, number of subjects [2, 6]: 0
Nausea Grade 3, percent of total subjects [2, 6]: 0.0%
Neutropenia Grade 1, number of subjects [2, 6]: 3
Neutropenia Grade 1, percent of total subjects [2, 6]: 16.7%
Neutropenia Grade 2, number of subjects [2, 6]: 2
Neutropenia Grade 2, percent of total subjects [2, 6]: 11.1%
Neutropenia Grade 3, number of subjects [2, 6]: 0
Neutropenia Grade 3, percent of total subjects [2, 6]: 0.0%
Platelet Count Grade 1, number of subjects [2, 6]: 2
Platelet Count Grade 1, percent of total subjects [2, 6]: 11.1%
Platelet Count Grade 2, number of subjects [2, 6]: 0
Platelet Count Grade 2, percent of total subjects [2, 6]: 0.0%
Platelet Count Grade 3, number of subjects [2, 6]: 0
Platelet Count Grade 3, percent of total subjects [2, 6]: 0.0%
Urine Discolorization Grade 1, number of subjects [2, 6]: 4
Urine Discolorization Grade 1, percent of total subjects [2, 6]: 22.2%
Urine Discolorization Grade 2, number of subjects [2, 6]: 0
Urine Discolorization Grade 2, percent of total subjects [2, 6]: 0.0%
Urine Discolorization Grade 3, number of subjects [2, 6]: 0
Urine Discolorization Grade 3, percent of total subjects [2, 6]: 0.0%
Vomiting Grade 1, number of subjects [2, 6]: 11
Vomiting Grade 1, percent of total subjects [2, 6]: 61.1%
Vomiting Grade 2, number of subjects [2, 6]: 3
Vomiting Grade 2, percent of total subjects [2, 6]: 16.7%
Vomiting Grade 3, number of subjects [2, 6]: 0
Vomiting Grade 3, percent of total subjects [2, 6]: 0.0%
Weight Loss Grade 1, number of subjects [2, 6]: 2
Weight Loss Grade 1, percent of total subjects [2, 6]: 11.1%
Weight Loss Grade 2, number of subjects [2, 6]: 0
Weight Loss Grade 2, percent of total subjects [2, 6]: 0.0%
Weight Loss Grade 3, number of subjects [2, 6]: 0
Weight Loss Grade 3, percent of total subjects [2, 6]: 0.0%
